Calls of active or inactive are those of the source. The calls are words filed in the database; no cut-off is given here.
Assays:
Assay type in all cases: cell-based
[1] = molecular target: T1, Glucocorticoid receptor (Homo sapiens) (UniProt P04150); assay: Transrepression of human GRalpha expressed in HEK293 cells co-expressing pGL4.32 assessed as inhibition of TNFalpha-stimulated NF-kB activity at 30 uM preincubated for 4 hrs followed by TNFalpha addition measured after 3 hrs by luciferase reporter gene assay relative to control
T1 sequence (whole entry): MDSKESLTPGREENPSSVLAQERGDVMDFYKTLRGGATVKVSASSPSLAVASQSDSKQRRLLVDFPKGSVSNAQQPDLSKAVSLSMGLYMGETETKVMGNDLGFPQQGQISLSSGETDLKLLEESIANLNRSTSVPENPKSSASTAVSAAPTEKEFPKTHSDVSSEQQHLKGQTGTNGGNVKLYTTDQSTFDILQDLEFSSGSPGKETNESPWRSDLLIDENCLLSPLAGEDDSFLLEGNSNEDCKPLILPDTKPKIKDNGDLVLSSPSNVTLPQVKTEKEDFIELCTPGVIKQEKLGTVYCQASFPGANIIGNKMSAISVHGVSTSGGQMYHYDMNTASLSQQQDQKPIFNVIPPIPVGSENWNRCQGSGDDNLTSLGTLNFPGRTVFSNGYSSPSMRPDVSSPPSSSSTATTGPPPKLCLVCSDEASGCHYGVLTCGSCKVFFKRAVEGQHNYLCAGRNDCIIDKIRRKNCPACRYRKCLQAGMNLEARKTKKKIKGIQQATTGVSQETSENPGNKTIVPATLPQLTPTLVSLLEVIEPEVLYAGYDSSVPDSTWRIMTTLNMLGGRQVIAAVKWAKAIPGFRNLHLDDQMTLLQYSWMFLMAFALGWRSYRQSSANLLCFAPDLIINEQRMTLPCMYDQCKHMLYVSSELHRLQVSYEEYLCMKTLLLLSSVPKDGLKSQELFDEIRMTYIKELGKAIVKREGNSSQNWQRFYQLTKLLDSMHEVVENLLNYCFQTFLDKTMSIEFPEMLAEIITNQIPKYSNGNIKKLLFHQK

Progesterone receptor = molecular target: T2, Progesterone receptor (Homo sapiens, UniProt P06401); assay: Antagonist activity at PR in human T47D cells assessed as inhibition of progesterone-induced response after 24 hrs by alkaline phosphatase assay
T2 sequence (P06401 whole entry): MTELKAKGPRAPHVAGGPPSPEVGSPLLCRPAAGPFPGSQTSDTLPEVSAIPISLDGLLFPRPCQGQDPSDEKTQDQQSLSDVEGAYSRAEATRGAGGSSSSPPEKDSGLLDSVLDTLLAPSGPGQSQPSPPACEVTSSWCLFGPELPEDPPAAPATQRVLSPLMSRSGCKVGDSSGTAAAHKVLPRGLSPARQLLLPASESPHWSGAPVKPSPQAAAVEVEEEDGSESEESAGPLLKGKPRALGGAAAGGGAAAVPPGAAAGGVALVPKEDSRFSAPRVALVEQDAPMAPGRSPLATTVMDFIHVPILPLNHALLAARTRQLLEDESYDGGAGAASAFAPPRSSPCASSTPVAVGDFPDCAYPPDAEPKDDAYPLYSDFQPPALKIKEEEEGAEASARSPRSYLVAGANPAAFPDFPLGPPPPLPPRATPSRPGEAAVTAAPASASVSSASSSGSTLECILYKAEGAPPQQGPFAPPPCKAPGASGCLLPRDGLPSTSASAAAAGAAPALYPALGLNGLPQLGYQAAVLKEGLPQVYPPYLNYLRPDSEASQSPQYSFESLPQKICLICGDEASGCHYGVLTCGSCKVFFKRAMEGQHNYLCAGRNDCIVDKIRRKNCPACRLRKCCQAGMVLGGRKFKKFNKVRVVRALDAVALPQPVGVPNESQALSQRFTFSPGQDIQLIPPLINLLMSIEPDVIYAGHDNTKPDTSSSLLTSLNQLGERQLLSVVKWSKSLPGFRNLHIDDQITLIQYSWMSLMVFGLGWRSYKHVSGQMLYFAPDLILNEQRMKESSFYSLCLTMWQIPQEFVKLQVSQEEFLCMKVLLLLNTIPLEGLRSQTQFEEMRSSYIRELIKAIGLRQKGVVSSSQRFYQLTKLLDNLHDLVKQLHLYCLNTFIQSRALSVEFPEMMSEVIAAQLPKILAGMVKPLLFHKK

Glucocorticoid receptor [2] = molecular target: T3, Glucocorticoid receptor (Homo sapiens, UniProt P04150); assay: Transactivation of human GRalpha expressed in HEK293 cells after 24 hrs by luciferase reporter gene assay; settings: hek293, 24 h
T3 sequence (P04150 whole entry): T1 sequence (whole entry)

Glucocorticoid receptor [3] = molecular target: T3, Glucocorticoid receptor; assay: Antagonist activity at human GRalpha expressed in HEK293 cells assessed as inhibition of dexamethasone-induced response after 24 hrs by luciferase reporter gene assay
[4] = molecular target: T4, Androgen receptor (Homo sapiens) (UniProt P10275); assay: Antagonist activity at human AR expressed in HEK293 cells at 30 uM after 24 hrs by luciferase reporter gene assay
T4 sequence (whole entry): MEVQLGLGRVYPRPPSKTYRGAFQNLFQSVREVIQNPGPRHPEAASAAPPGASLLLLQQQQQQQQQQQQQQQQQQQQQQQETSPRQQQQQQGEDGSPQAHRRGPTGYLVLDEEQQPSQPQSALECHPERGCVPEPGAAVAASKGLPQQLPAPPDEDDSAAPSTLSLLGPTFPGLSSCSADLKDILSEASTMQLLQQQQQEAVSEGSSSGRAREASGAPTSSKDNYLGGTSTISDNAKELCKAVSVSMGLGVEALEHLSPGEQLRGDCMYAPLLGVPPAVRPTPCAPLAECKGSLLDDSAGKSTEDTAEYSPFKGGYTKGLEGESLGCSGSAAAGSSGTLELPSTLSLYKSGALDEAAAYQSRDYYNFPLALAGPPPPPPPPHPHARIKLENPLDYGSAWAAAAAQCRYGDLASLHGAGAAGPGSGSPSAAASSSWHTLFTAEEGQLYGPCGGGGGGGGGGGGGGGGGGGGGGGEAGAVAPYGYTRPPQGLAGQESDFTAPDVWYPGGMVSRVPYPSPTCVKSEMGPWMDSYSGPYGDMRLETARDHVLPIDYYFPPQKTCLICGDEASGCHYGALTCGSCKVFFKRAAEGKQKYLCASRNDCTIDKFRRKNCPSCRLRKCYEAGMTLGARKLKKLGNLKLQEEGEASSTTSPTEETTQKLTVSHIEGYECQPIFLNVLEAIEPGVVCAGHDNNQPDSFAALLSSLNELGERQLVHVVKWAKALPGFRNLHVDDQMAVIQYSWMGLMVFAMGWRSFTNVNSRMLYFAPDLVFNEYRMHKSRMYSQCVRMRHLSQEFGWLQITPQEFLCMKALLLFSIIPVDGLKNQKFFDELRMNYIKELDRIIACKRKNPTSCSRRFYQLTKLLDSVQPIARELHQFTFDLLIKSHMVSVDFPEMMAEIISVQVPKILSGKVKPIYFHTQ

[5] = molecular target: T5, Estrogen receptor (Homo sapiens) (UniProt P03372); assay: Antagonist activity at human GAL4-fused ERalpha LBD expressed in HEK293 cells at 30 uM after 24 hrs by luciferase reporter gene assay
T5 sequence (whole entry): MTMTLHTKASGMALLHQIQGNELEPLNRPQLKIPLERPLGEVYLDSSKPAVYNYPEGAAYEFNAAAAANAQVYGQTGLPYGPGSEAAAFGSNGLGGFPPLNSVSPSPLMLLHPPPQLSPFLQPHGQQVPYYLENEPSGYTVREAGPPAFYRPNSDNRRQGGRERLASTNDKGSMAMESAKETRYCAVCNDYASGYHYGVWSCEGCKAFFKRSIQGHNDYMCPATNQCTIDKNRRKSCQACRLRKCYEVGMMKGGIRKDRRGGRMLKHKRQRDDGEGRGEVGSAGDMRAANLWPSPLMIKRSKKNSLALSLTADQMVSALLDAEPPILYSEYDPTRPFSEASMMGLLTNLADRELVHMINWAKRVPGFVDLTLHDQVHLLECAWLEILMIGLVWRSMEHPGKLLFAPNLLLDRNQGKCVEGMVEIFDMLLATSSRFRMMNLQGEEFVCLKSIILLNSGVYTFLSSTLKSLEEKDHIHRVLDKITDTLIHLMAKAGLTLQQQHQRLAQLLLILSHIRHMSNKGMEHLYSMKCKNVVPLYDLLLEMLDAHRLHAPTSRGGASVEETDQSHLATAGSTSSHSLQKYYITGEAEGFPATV

[6] = molecular target: Estrogen receptor beta (Homo sapiens) (UniProt Q92731); assay: Antagonist activity at human GAL4-fused ERbeta LBD expressed in HEK293 cells at 30 uM after 24 hrs by luciferase reporter gene assay
Sequence of Estrogen receptor beta (Homo sapiens) (Q92731 whole entry, the tested form may be a part): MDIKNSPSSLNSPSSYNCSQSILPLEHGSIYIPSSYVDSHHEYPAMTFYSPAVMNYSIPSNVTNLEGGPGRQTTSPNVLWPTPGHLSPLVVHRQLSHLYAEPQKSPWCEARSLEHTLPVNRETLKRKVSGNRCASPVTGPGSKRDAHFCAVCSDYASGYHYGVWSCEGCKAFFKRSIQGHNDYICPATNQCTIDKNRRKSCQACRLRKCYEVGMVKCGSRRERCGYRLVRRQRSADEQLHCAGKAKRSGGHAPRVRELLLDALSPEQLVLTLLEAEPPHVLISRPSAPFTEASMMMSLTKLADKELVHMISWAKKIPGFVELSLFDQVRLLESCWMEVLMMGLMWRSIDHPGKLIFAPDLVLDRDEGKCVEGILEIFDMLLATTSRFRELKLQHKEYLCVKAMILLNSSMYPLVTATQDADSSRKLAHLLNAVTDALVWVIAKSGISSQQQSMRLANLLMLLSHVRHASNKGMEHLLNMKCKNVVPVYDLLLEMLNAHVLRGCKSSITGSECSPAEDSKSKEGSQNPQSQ

Compound: N#Cc1ccc(S(=O)(=O)N(Cc2ccccc2)c2ccc(Oc3ccccc3)cc2)cc1
- inhibition [1]: inactive
- IC50 (Progesterone receptor): 8 µM
- Activity (Glucocorticoid receptor [2]): Not Active
- IC50 (Glucocorticoid receptor [3]): 1.43 µM
- inhibition [4]: inactive
- inhibition [5]: inactive
- inhibition [6]: inactive
